Reference: paper PMC10385579, “Design, Synthesis, and Biological Evaluation of Indole-2-carboxamides as Potential Multi-Target Antiproliferative Agents” (Pharmaceuticals, 2023)

System: Bcl-2
Experiment: Bcl-2 level assay in A-549 cells
Assay type: cell-based, human
Settings: for Bcl-2 Conc: control 5; for Bcl-2 Fold Reduction: vs control
Protocol: Compounds Va and Vg were explored further for their impact on caspase-8, Bax, and Bacl-2 levels against a human epithelial cancer cell line (A-549) using doxorubicin as a reference. See Supplementary Materials. […]
4.2.8. Bcl-2inhibition assay
Mix all reagents thoroughly without foaming before use. Wash the microwells twice with approximately 300 μL Wash Buffer per well with thorough aspiration of microwell contents between washes. Take caution not to scratch the surface of the microwells. After the last wash, empty the wells and tap microwell strips on absorbent pad or paper towel to remove excess Wash Buffer. Use the microwell strips immediately after washing or place upside down on a wet absorbent paper for not longer than 15 minutes. […] Add 100 μL of Sample […]
Diluent in duplicate to all standard wells and to the blank wells. Prepare standard (1:2 dilution) in duplicate ranging from 32 ng/mL to 0.5 ng/mL. Add 100 μL of Sample Diluent, in duplicate, to the blank wells. Add 80 μL of Sample Diluent, in duplicate, to the sample wells. Add 20 μL of each Sample, in duplicate, to the designated wells. Add 50 μL of diluted biotin-conjugate to all wells, including the blank wells. Cover with a plate cover and incubate at room temperature, on a microplate shaker at 100 rpm if available, for 2 hours. Remove plate cover and empty the wells.
Wash microwell strips 3 times as described in step 2. Add 100 μL of diluted Streptavidin-HRP to all wells, including the blank wells. Cover with a plate cover and incubate at room temperature, on a microplate shaker at 100 rpm if available, for 1 hour. Remove plate cover and empty the wells.
Wash microwell strips 3 times as described in step 2. Proceed to the next step. Pipette 100 μl of mixed TMB Substrate Solution to all wells, including the blanks. Incubate the microwell strips at room temperature (18° to 25°C) for about 15 minutes, if available on a rotator set at 100 rpm.
Avoid direct exposure to intense light. The point, at which the substrate reaction is stopped, is often determined by the ELISA reader. Many ELISA readers record absorbance only up to 2.0
O.D. Therefore, the color development within individual microwells must be watched by the person running the assay and the substrate reaction stopped before positive wells are no longer properly detectable. Stop the enzyme reaction by quickly pipetting 100 μL of Stop Solution into each well, including the blank wells. It is important that the Stop Solution is spread quickly and uniformly throughout the microwells to completely inactivate the enzyme. Results must be read immediately after the Stop Solution is added or within one hour if the microwell strips are stored at 2 - 8°C in the dark. Read absorbance of each microwell on a spectrophotometer using 450 nm as the primary wavelength.

Compound | Bcl-2 Conc [ng/mL] | Bcl-2 Fold Reduction
O=C(NCC(c1ccccc1)c1c(-c2ccccc2)[nH]c2ccccc12)c1cc2cc(Cl)ccc2[nH]1 (stereo not shown) [Compound Va, 5-Chloro-N-(2-phenyl-2-(2-phenyl-1H-indol-3-yl)ethyl)-1H-indole-2-carboxamide] | 0.75 | 7
CO/C=C/c1c(C(=O)NCC(c2ccccc2)c2c(-c3ccccc3)[nH]c3ccccc23)[nH]c2ccc(Cl)cc12 (stereo not shown) [Compound Vg, (E)-5-Chloro-3-(2-methoxyvinyl)-N-(2-phenyl-2-(2-phenyl-1H-indol-3-yl)ethyl)-1H-indole-2-carboxamide] | 0.85 | 6
